Experimental data published in ChEMBL document CHEMBL5154835, “Design, synthesis and biological evaluation of sulfonamides inhibitors of XPO1 displaying activity against multiple myeloma cells” (Eur J Med Chem, 2022).
One block for each compound: values may come before it.

Columns and labels:
Assay type in all cases: functional, cell-based
[1] = tested on: MM1.S; assay: Antiproliferative activity against human MM1.S cells assessed as inhibition of cell growth incubated for 4 hrs by CCK-8 assay
[2] = Antiproliferative activity against human Mutu-1 cells assessed as inhibition of cell growth incubated for 4 hrs by CCK-8 assay; conditions: Mutu-1, 4 h
[3] = Antiproliferative activity against human VAL cells assessed as inhibition of cell growth incubated for 4 hrs by CCK-8 assay
[4] = tested on: H9; assay: Antiproliferative activity against human H9 cells assessed as inhibition of cell growth incubated for 4 hrs by CCK-8 assay; conditions: H9, 4 h
[5] = Antiproliferative activity against human Rael cells assessed as inhibition of cell growth incubated for 4 hrs by CCK-8 assay
[6] = tested on: YT; assay: Antiproliferative activity against human YT cells assessed as inhibition of cell growth incubated for 4 hrs by CCK-8 assay
[7] = tested on: NAMALVA; assay: Antiproliferative activity against human NAMALVA cells assessed as inhibition of cell growth incubated for 4 hrs by CCK-8 assay
[8] = Antiproliferative activity against human MINO cells assessed as inhibition of cell growth incubated for 4 hrs by CCK-8 assay
[9] = Antiproliferative activity against human JB-6 cells assessed as inhibition of cell growth incubated for 4 hrs by CCK-8 assay; conditions: JB6, 4 h

SMILES: COc1ccc(/C(=C\n2cnc(-c3cc(C(F)(F)F)cc(C(F)(F)F)c3)n2)C(N)=O)c(F)c1F
- IC50 [1]: 1200 nM

SMILES: NC(=O)/C(=C/n1cnc(-c2cc(C(F)(F)F)cc(C(F)(F)F)c2)n1)c1cccc(F)c1F
- IC50 [1]: 5200 nM

SMILES: CCNC(=O)/C(=C/n1cnc(-c2cc(C(F)(F)F)cc(C(F)(F)F)c2)n1)c1ccc(NS(C)(=O)=O)cc1
- IC50 [1]: 2160 nM

SMILES: CCOc1ccc(/C(=C\n2cnc(-c3cc(C(F)(F)F)cc(C(F)(F)F)c3)n2)C(N)=O)c(F)c1F
- IC50 [1]: > 10000 nM

Stronger by IC50 [1], values ahead:

- IC50 [1]: 359 nM
SMILES: NC(=O)/C(=C/n1cnc(-c2cc(C(F)(F)F)cc(C(F)(F)F)c2)n1)c1cccnc1F

- IC50 [1]: 446 nM
SMILES: CN(c1ccc(/C(=C\n2cnc(-c3cc(C(F)(F)F)cc(C(F)(F)F)c3)n2)C(N)=O)cc1)S(C)(=O)=O

- IC50 [1]: 64 nM
SMILES: NC(=O)/C(=C/n1cnc(-c2cc(C(F)(F)F)cc(C(F)(F)F)c2)n1)c1cncnc1 [ELTANEXOR]
- IC50 [2]: 283 nM
- IC50 [3]: 287 nM
- IC50 [4]: 139 nM
- IC50 [5]: 261 nM
- IC50 [6]: 103 nM
- IC50 [7]: 93.8 nM
- IC50 [8]: 130 nM
- IC50 [9]: 334 nM
